# Experiments:
# Vero [1] = assay: Cytotoxic effect on host cells during growth phase of virus in vero cell cultures using MTT method; format: functional, cell-based; details: Chlorocebus sabaeus
# Vero [2] = assay: Cytotoxic effect on host cells during stationary phase of virus in vero cell cultures using MTT method; format: functional, cell-based; details: Chlorocebus sabaeus
# Vero [3] = assay: In vitro anti-vesicular stomatitis virus activity in vero cell cultures; format: functional; details: Chlorocebus sabaeus, read-out: ED50 (the source's name)
# [4] = Ratio of cytotoxicity, IC50(growing) to antiviral activity (ED50) was determined; format: functional
Structure (SMILES),IC50 (Vero [1]) [µg/mL],IC50 (Vero [2]) [µg/mL],EC50 (Vero [3]) [µg/mL],Selectivity index [4]
C[C@H](O)C1=C[C@@H](n2cnc3c(N)ncnc32)[C@H](O)[C@@H]1O,> 100,> 500,> 100,–
Nc1nccc2c1ncn2[C@@H]1C=C(CO)[C@@H](O)[C@H]1O,0.55,> 500,0.24,2.3
C[C@H](O)C1=C[C@@H](n2cnc3c(N)nccc32)[C@H](O)[C@@H]1O,> 100,> 500,> 100,–
C[C@@H](O)C1=C[C@@H](n2cnc3c(N)nccc32)[C@H](O)[C@@H]1O,12,> 500,1,12
C[C@@H](O)C1=C[C@@H](n2cnc3c(N)ncnc32)[C@H](O)[C@@H]1O,2.2,> 500,0.24,9.2
Nc1ncnc2c1ncn2[C@@H]1C=C(CO)[C@@H](O)[C@H]1O [NEOPLANOCIN A],0.26,152,0.24,1.1
